Reference: patent publication US5112866A, “Ethanesulfonamide derivatives” (Ortho Pharmaceutical Corporation, priority 1989, dated 1992)
Structures can show the parent of a compound that is named as a salt. Where two headings read alike, the source gives them in different places.

Tests used:
Gastric Secretion = assay: Inhibition of Gastric Secretion in Rat (pylorus ligated); assay type: in vivo, rat (male Charles River); conditions: Dose 40 MPK, intraduodenal, four hours after pylorus ligation
Protocol: Inhibition of Gastric Secretion in Rat
Male Charles River rats weighing 150-300 grams were deprived of food but not water for 18-24 hours prior to use. Water was withheld during the experiment. The rats were weighed, anesthetized with ether and the pylorus ligated according to the method of Shay, H. et al., Gastroenterol. 26, 906 (1954). Test compounds were suspended in a 0.5% aqueous solution of methylcellulose (15 cps) and administered intraduodenally (i.d.) at the time of ligation. The rats were housed two per cage and sacrificed with CO2 four hours after ligation. The stomachs were removed and contents emptied into a graduated centrifuge tube. The tubes were centrifuged, the volume of gastric juice recorded, and any samples obviously contaminated by feces, food or blood eliminated. A 1 ml aliquot of gastric juice was titrated with 0.1 N NaOH to a pH of 7.0-7.4.
The volume of gastric juice secreted, the acid concentration, and the product of the volume times the concentration, i.e., the total amount of acid secreted, were statistically compared by a student's t-test using the pooled error variance.

[1] = tested on: Rabbit Isolated Parietal Cells; assay: Inhibition of 14C-aminopyrine accumulation in stimulated rabbit isolated parietal cells; assay type: cell-based; conditions: Oryctolagus cuniculus, 37° C.
Description: Pharmacology of the Ethanesulfonamide Compounds - Rabbit Isolated Parietal Cells
Parietal cells were isolated from the fundic mucosa of rabbit stomachs by a four-stage collagenase digestion Process. The supernatant fraction from the last two stages of this Process contained the individual parietal cells. This cell suspension was centrifuged and reconstituted in a modified Hank's buffer to contain 2-3×10^6 cells/ml. […] The accumulation is stimulated by histamine and is blocked by H2 antagonists. Accumulation of ^14 C-AP is also stimulated by dibutyryl cAMP (dbcAMP). The cells were incubated with 0.5×10^6 cpm ^14 C-AP, with various concentrations of histamine or dbcAMP, […] isobutylmethylxanthine, and test compound added in a 20 μl volume of buffer or dimethylsulfoxide. The flasks were incubated in a shaking water bath at 37° C. Two 0.5 ml aliquots were then taken from each flask and cell pellets were collected by centrifugation. The pellets were solubilized with Protosol (NEN) and radioactivity determined by liquid scintillation spectrometry.
The concentration of compound required to inhibit ^14 C-AP accumulation in the stimulated parietal cell by 50% (IC50) was determined.

[2] = tested on: Mouse osteoblastic-line cells (MC3T3-El); assay: Mouse Osteoblast-line Cell Proliferation (3H-thymidine); assay type: cell-based; conditions: 0.1% FBS
Protocol: Pharmacology of the Ethenesulfonyl Fluoride Compounds--In Vitro Mouse Osteoblast-line Cell Proliferation
Reagents: Mouse osteoblastic-line cells (MC3T3-El) were plated in Dulbeccos Modified Eagles Medium (DMEM) with 25 mM Hepes Buffer, L-Glutamine, D-Glucose(4.5 gm/1) supplemented with 10% fetal bovine sera, Penicillin (100 units/ml) and Streptomycin ([…]) (Penicillin-Streptomycin liquid) and sodium pyruvate (10 μM final concentration). ^3 H-Thymidine (6.7 Ci/mmole) was diluted in DMEM media without FBS and filter sterilized. An aliquot of this solution was delivered to each culture well to a final concentration of ^3 H-thymidine of 0.4 μCi per well (2 μCi/ml).
Test Preparations: Solutions of the test compound were made on the day before incubation. These compounds were solubilized in either ethanol or DMSO at a concentration of 100 mM containing 0.1% FBS. The solutions were filter sterilized and then sterile serial dilutions were performed with DMEM media containing 0.1% FBS.
Osteoblast line cells were plated into 96 well culture plates, 1600 cells in 100 μL per well in DMEM with 25 mM Hepes Buffer, L-Glutamine, D-Glucose (4.5 gm/L) supplemented with 10% fetal bovine sera, Penicillin (100 units/mL) and Streptomycin (100 μg/mL) and sodium Pyruvate (10 μM final concentration). The media was replaced with DMEM containing no FBS and the cells were then incubated for an additional 24 hours. The following day, test compounds were added and screened at concentrations ranging from 10^-10 to 10^-5 M in the Presence of 0.1% FBS. The cells were then incubated an additional 20 hours. At this time 0.4 μ/Ci of 3H-thymidine was added to each culture well and the cells were incubated an additional 4 hours. The cells were then harvested with a Skatron Cell Harvester onto a glass fiber filter and washed with water, %5 trichloroacetic acid (TCA) and then 95% ethanol. The filters were then processed and counted on the LKB beta plate scintillation counter.

[3] = 14C-AP accumulation stimulated by dibutyryl cAMP, read-out: IC50 (dbcAMP)
[4] = 14C-AP accumulation stimulated by histamine, read-out: IC50 (H)

| SMILES | % Reduction of Total Acid Output (Gastric Secretion) | IC50 [1, 3] | IC50 [1, 4] | Mouse Osteoblast-line Cell Proliferation [Expressed as a Percent of Control] ([2]; 0.001 μM) | Mouse Osteoblast-line Cell Proliferation [Expressed as a Percent of Control] ([2]; 0.01 μM) | Mouse Osteoblast-line Cell Proliferation [Expressed as a Percent of Control] ([2]; 0.1 μM) | Mouse Osteoblast-line Cell Proliferation [Expressed as a Percent of Control] ([2]; 1.0 μM) | Mouse Osteoblast-line Cell Proliferation [Expressed as a Percent of Control] ([2]; 10 μM) |
| --- | --- | --- | --- | --- | --- | --- | --- | --- |
| O=S(=O)(CCNc1ccc(Cl)c(Cl)c1)NCCCOc1cccc(CN2CCCCC2)c1 [Example 1] | 47.9% | 130 nM | 370 nM | – | – | – | – | – |
| O=S(=O)(CCNc1ccc(F)cc1)NCCCOc1cccc(CN2CCCCC2)c1 [Example 2, 2-[(4-Fluorophenyl)amino]-N-[3-[3-(piperidinomethyl)phenoxy]propyl]ethanesulfonamide] | 22.1% | 1820 nM | 920 nM | – | – | – | – | – |
| CCOC(=O)c1ccc(NCCS(=O)(=O)NCCCOc2cccc(CN3CCCCC3)c2)cc1 [Example 3] | 25.6% | 2300 nM | 390 nM | – | – | – | – | – |
| O=[N+]([O-])c1ccc(NCCS(=O)(=O)NCCCOc2cccc(CN3CCCCC3)c2)cc1 [Example 4, 2-[(4-Nitrophenyl)amino]-N-[3-[3-(piperidinomethyl)phenoxy]propyl]ethanesulfonamide] | 30.8% | 3700 nM | 120 nM | – | – | – | – | – |
| O=S(=O)(CCNc1ccc(Br)cc1)NCCCOc1cccc(CN2CCCCC2)c1 [Example 5] | – | 860 nM | 370 nM | – | – | – | – | – |
| O=S(=O)(CCNc1ccccc1)NCCCOc1cccc(CN2CCCCC2)c1 [Example 6, 2-(Phenylamino)-N-[3-[3-(piperidinomethyl)phenoxy]propyl]ethanesulfonamide] | – | 10000 nM | 1000 nM | – | – | – | – | – |
| CC(C)Oc1ccc(NCCS(=O)(=O)NCCCOc2cccc(CN3CCCCC3)c2)cc1 [Example 7, 2-[[4-(1-Methylethony)Phenyl]amino]-N-[3-[3-(piperidinomethyl)Phenoxy]propyl]ethanesulfonamide] | – | 2000 nM | 840 nM | – | – | – | – | – |
| CCCCCOc1ccc(NCCS(=O)(=O)NCCCOc2cccc(CN3CCCCC3)c2)cc1 [Example 8, 2-[(4-Pentoxyphenyl)amino]-N-[3-[3-(piperidinomethyl)phenoxy]propyl]ethanesulfonamide] | – | 370 nM | 330 nM | – | – | – | – | – |
| CCOC(=O)c1ccc(NCCS(=O)(=O)F)cc1 [Example 16] | – | – | – | 132.8% of Control | 142.1% of Control | 127.5% of Control | 136.5% of Control | 154.7% of Control |
| COc1ccc(NCCS(=O)(=O)F)cc1 [Example 17, Monohydrochloride] | – | – | – | 165.5% of Control | 148.9% of Control | 129.1% of Control | 115.9% of Control | 108.8% of Control |
| O=S(=O)(F)CCNc1ccccc1 [Example 18, Monohydrochloride] | – | – | – | 132.6% of Control | 125.6% of Control | 108.1% of Control | 93.1% of Control | 95.9% of Control |
| CCCCc1ccc(NCCS(=O)(=O)F)cc1 [Example 19, Monohydrochloride] | – | – | – | 109.0% of Control | 143.3% of Control | 159.8% of Control | 97.4% of Control | 115.7% of Control |
| O=S(=O)(F)CCNc1ccc(F)cc1 [Example 20, Monohydrochloride] | – | – | – | 133.4% of Control | 111.8% of Control | 110.2% of Control | 116.9% of Control | 112.3% of Control |
| Cc1ccc(NCCS(=O)(=O)F)cc1 [Example 21] | – | – | – | 131.5% of Control | 132.0% of Control | 126.6% of Control | 119.9% of Control | 111.8% of Control |
| COc1ccc(NCCS(=O)(=O)F)cc1OC [Example 22, Monohydrochloride] | – | – | – | 143.6% of Control | 133.6% of Control | 116.4% of Control | 113.5% of Control | 106.7% of Control |
| O=S(=O)(F)CCNc1ccc(C(F)(F)F)cc1 [Example 23] | – | – | – | 108.1% of Control | 97.9% of Control | 107.3% of Control | 120.8% of Control | 111.7% of Control |
| COc1ccc(CCN(C)CCS(=O)(=O)F)cc1OC [Example 24, N-[2-(Fluorosulfonyl)ethyl]-3,4-dimethoxy-N-methylphenethylamine] | – | – | – | 150.4% of Control | 143.9% of Control | 153.5% of Control | 123.3% of Control | 106.7% of Control |
| CCc1ccc(NCCS(=O)(=O)F)cc1 [Example 25, Monohydrochloride] | – | – | – | 139.4% of Control | 123.3% of Control | 100.9% of Control | 110.6% of Control | 90.0% of Control |
| CC(C)(C)c1ccc(NCCS(=O)(=O)F)cc1 [Example 26, Hydrate] | – | – | – | 152.8% of Control | 165.7% of Control | 89.9% of Control | 102.7% of Control | 93.2% of Control |
| CC(C)c1ccc(NCCS(=O)(=O)F)cc1 [Example 27, Hydrate] | – | – | – | 137.2% of Control | 130.0% of Control | 106.9% of Control | 110.8% of Control | 97.7% of Control |
